Laboratory results from article PMC7665585, “Antidepressive effect of an inward rectifier K^+ channel blocker peptide, tertiapin-RQ” (PLoS ONE, 2020).
Entries after “also recorded” stand apart in the source; their conditions may differ. Bridge positions count the residues as written; N and C are the ends. Ends that are not written are not given here. Peptide text beside a SMILES is read from it.

Key:
rat ROMK = molecular target: T1, rat ROMK (Rattus norvegicus, UniProt P35560); experiment: Whole-cell patch-clamp of ROMK currents in 208–4 cells; assay type: cell-based; details: for inhibition at 1 µM / Activity (ROMK channel blocking activity, percentage of blockade at 1 μM): blockade at 1 μM estimated from fitted Hill curve (four parameters), whole-cell conductance; for inhibition at 1 µM: n = 3–6, read-out: Activity (ROMK channel blocking activity, percentage of blockade at 1 μM); for Activity (ROMK channel blocking activity, percentage of blockade at 1 μM): n = 3–6; for ROMK blocking activity (in words): whole-cell recordings
T1 construct: expressed in transfected cells; host or cells: 293T cell line 208-4 (lentiviral transduction, GFP coexpressed)
T1 sequence (P35560 1-391): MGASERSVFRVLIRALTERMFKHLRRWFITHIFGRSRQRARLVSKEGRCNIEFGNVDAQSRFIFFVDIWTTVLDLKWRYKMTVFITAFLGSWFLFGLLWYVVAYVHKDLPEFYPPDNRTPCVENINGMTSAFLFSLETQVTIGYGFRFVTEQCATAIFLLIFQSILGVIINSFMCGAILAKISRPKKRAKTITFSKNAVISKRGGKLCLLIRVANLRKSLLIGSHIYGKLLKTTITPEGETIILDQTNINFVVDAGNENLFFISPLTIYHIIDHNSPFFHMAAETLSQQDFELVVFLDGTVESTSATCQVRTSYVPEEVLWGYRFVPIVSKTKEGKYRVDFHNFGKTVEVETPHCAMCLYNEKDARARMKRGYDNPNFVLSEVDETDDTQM
Procedure, shortened: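 ROMK stably expressed in 208–4 cells; GIRK transiently in 293T, recorded 24 h post-transfection; 25°C, Tyrode (high-K+ 50 mM for GIRK), K-aspartate/KCl pipette with 3 mM MgATP. Steps −150 to 10 mV from −70 mV; currents 60 s after peptide; conductance from I-V slope −140 to −100 mV, Ba2+-resistant current subtracted, normalized to 0 μM TPN.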

Male ICR mice [1] = experiment: Tail suspension test (TST); assay type: in vivo, mouse
Procedure: We performed mouse behavioral experiments in accordance with our previous study. Male ICR mice (n = 199 in total) aged 5 weeks old were purchased from Shimizu Laboratory Supplies (Kyoto, Japan) and maintained in an animal facility for 7–12 days. They had free access to food and water and were kept in a 12-h light/dark cycle (08:00–20:00). Experiments were carried out between 11:00 and 17:00 in a quiet and air-conditioned experimental room, to which mice were habituated for 30–60 min before each experiment. Animal experiments were performed in accordance with the guidelines of the Physiological Society of Japan and were approved by the Committee for Animal Experiments of Kurashiki University of Science and the Arts. Peptides were dissolved in phosphate-buffered saline (PBS). Peptides were injected intracerebroventricularly (i.c.v.) 30 min before behavioral tests (typically 5 μL/mouse), according to a previous study. The mouse was placed into an anesthetizing jar, to which isoflurane (0.2 mL) was added immediately before. After confirming that the mouse was deeply anesthetized we injected the peptide into the right cerebral ventricle over 30 seconds and the injection needle was kept for 1 min after the injection (i.c.v. coordinates: 0 mm caudal to bregma, 1.0 mm lateral to the midline, and 3.5 mm below the skull). The mouse was placed in a cage set on a heating pad (approximately 33°C) for a few minutes until it spontaneously started to move, and then it was put back into its home cage. Each animal was used only once, except for the wheel running test, which was carried out immediately after the elevated plus-maze.
The tail suspension test (TST) was performed in accordance with the method reported previously. The mouse was hung on a hook using adhesive tape placed 2 cm from the extremity of its tail 50 cm above a table. The amount of time spent immobile was recorded for 5 min.

Male ICR mice [2] = experiment: Forced swim test (FST); assay type: in vivo, mouse; details: i.c.v., 30 min before test, last 4 min of 6 min
Procedure: We performed mouse behavioral experiments in accordance with our previous study. Male ICR mice (n = 199 in total) aged 5 weeks old were purchased from Shimizu Laboratory Supplies (Kyoto, Japan) and maintained in an animal facility for 7–12 days. They had free access to food and water and were kept in a 12-h light/dark cycle (08:00–20:00). Experiments were carried out between 11:00 and 17:00 in a quiet and air-conditioned experimental room, to which mice were habituated for 30–60 min before each experiment. Animal experiments were performed in accordance with the guidelines of the Physiological Society of Japan and were approved by the Committee for Animal Experiments of Kurashiki University of Science and the Arts. Peptides were dissolved in phosphate-buffered saline (PBS). Peptides were injected intracerebroventricularly (i.c.v.) 30 min before behavioral tests (typically 5 μL/mouse), according to a previous study. The mouse was placed into an anesthetizing jar, to which isoflurane (0.2 mL) was added immediately before. […]
The forced swim test (FST) was performed in accordance with the method reported previously. […] The mouse was allowed to swim for 6 min and its activity was measured. […]

With CC[C@H](C)[C@@H]1NC(=O)[C@H](CCCNC(=N)N)NC(=O)[C@H](CCCNC(=N)N)NC(=O)[C@H](CC(N)=O)NC(=O)[C@@H]2CSSC[C@@H](C(=O)NCC(=O)N[C@@H](CCCCN)C(=O)N[C@@H](CCCCN)C(N)=O)NC(=O)[C@H](CCCCN)NC(=O)[C@H](CCCCN)NC(=O)[C@H](Cc3c[nH]c4ccccc34)NC(=O)[C@H](CSSC[C@H](N)C(=O)N[C@@H](CC(N)=O)C(=O)N2)NC(=O)[C@H](CCC(N)=O)NC(=O)[C@H](Cc2c[nH]cn2)NC(=O)[C@@H]2CCCN2C(=O)[C@H]([C@@H](C)CC)NC1=O [Peptide 70, TPN-RQ(Δ1A/Δ2L)] (H-CNCNRRIIPHQCWKKCGKK-NH2; disulfide 1-12, 3-16) the inhibition at 1 µM (rat ROMK) was 60 to 80%.
In the case of CC[C@H](C)[C@@H]1NC(=O)[C@H](CCCNC(=N)N)NC(=O)[C@H](CCCNC(=N)N)NC(=O)[C@H](CC(N)=O)NC(=O)[C@@H]2CSSC[C@@H](C(=O)NCC(N)=O)NC(=O)[C@H](CCCCN)NC(=O)[C@H](CCCCN)NC(=O)[C@H](Cc3c[nH]c4ccccc34)NC(=O)[C@H](CSSC[C@H](NC(=O)[C@H](CC(C)C)NC(=O)[C@H](C)N)C(=O)N[C@@H](CC(N)=O)C(=O)N2)NC(=O)[C@H](CCC(N)=O)NC(=O)[C@H](Cc2c[nH]cn2)NC(=O)[C@@H]2CCCN2C(=O)[C@H]([C@@H](C)CC)NC1=O [Peptide 71, TPN-RQ(Δ20K/Δ21K)] (H-ALCNCNRRIIPHQCWKKCG-NH2; disulfide 3-14, 5-18), the inhibition at 1 µM (rat ROMK) is reported as 20 to 40%.
O=[N+]([O-])c1ccc2nc(COCc3nc4ccc([N+](=O)[O-])cc4[nH]3)[nH]c2c1 [VU591] was tested, and the “immobile time in TST” value (Male ICR mice [1]; i.c.v., 5 μL of 20 mM in dimethyl sulfoxide, n = 4 and 5) was “significantly decreased the immobile time”.
For “ARIIPHQK-NH2 [Peptide 23, TPN-RQ 7-13(R7A) + K]”, the inhibition at 1 µM (rat ROMK) was < 20%.
With CNRIIIPH-NH2 [Peptide 8, TPN 5–12] the inhibition at 1 µM (rat ROMK) was < 20%.
IIIPHMCW-NH2 [Peptide 11, TPN 8–15] was tested, and the inhibition at 1 µM (rat ROMK) was < 20%.
With IIPHMCWK-NH2 [Peptide 12, TPN 9–16] the inhibition at 1 µM (rat ROMK) was < 20%.
For IPHMCWKK-NH2 [Peptide 13, TPN 10–17], the inhibition at 1 µM (rat ROMK) was < 20%.
NCNRIIIP-NH2 [Peptide 7, TPN 4–11] was tested, and the inhibition at 1 µM (rat ROMK) was < 20%.
With NRIIIPHM-NH2 [Peptide 9, TPN 6–13] the inhibition at 1 µM (rat ROMK) was < 20%.
In the case of “RAIIPHQK-NH2 [Peptide 24, TPN-RQ 7-13(R8A) + K]”, the inhibition at 1 µM (rat ROMK) is reported as < 20%.
For RIIIPHMC-NH2 [Peptide 10, TPN 7–14], the inhibition at 1 µM (rat ROMK) was < 20%.
For RIIIPHQC-NH2 [Peptide 18, TPN-Q 7–14], the inhibition at 1 µM (rat ROMK) was < 20%.
“RIIIPHQK-NH2 [Peptide 21, TPN-Q 7–13 + K]” was tested, and the inhibition at 1 µM (rat ROMK) was < 20%.
For “RRAIPHQK-NH2 [Peptide 25, TPN-RQ 7-13(I9A) + K]”, the inhibition at 1 µM (rat ROMK) was < 20%.
With “RRIAPHQK-NH2 [Peptide 26, TPN-RQ 7-13(I10A) + K]” the inhibition at 1 µM (rat ROMK) was < 20%.
With “RRIIAHQK-NH2 [Peptide 27, TPN-RQ 7-13(P11A) + K]” the inhibition at 1 µM (rat ROMK) was < 20%.
In the case of “RRIIPAQK-NH2 [Peptide 28, TPN-RQ 7-13(H12A) + K]”, the inhibition at 1 µM (rat ROMK) is reported as < 20%.
In the case of “RRIIPHAK-NH2 [Peptide 29, TPN-RQ 7-13(Q13A) + K]”, the inhibition at 1 µM (rat ROMK) is reported as < 20%.
RRIIPHMC-NH2 [Peptide 19, TPN-R 7–14] was tested, and the inhibition at 1 µM (rat ROMK) was < 20%.
In the case of RRIIPHQC-NH2 [Peptide 20, TPN-RQ 7–14], the inhibition at 1 µM (rat ROMK) is reported as < 20%.
For “RRIIPHQK-NH2 [Peptide 22, TPN-RQ 7–13 + K]”, the inhibition at 1 µM (rat ROMK) was < 20%.
“TPN 1–8 (ALCNCNRI) [Peptide 4, Partial TPN peptide (8 amino acids)]” was tested, and the “Activity (ROMK channel blocking activity, percentage of blockade at 1 μM)” value (rat ROMK) was “- (-, <20%)”.
In the case of TPN 2–9 [Peptide 5], the “Activity (ROMK channel blocking activity, percentage of blockade at 1 μM)” value (rat ROMK) is reported as “- (-, <20%)”.
With TPN 3–10 [Peptide 6] the “Activity (ROMK channel blocking activity, percentage of blockade at 1 μM)” value (rat ROMK) was “- (-, <20%)”.
In the case of TPN 11–18 [Peptide 14], the “Activity (ROMK channel blocking activity, percentage of blockade at 1 μM)” value (rat ROMK) is reported as “- (-, <20%)”.
TPN 12–19 [Peptide 15] was tested, and the “Activity (ROMK channel blocking activity, percentage of blockade at 1 μM)” value (rat ROMK) was “- (-, <20%)”.
For TPN 13–20 [Peptide 16], the “Activity (ROMK channel blocking activity, percentage of blockade at 1 μM)” value (rat ROMK) was “- (-, <20%)”.
For TPN 14–21 [Peptide 17], the “Activity (ROMK channel blocking activity, percentage of blockade at 1 μM)” value (rat ROMK) was “- (-, <20%)”.
With TPN-RQ(C3S) [Peptide 45] the “immobile time in TST” value (Male ICR mice [1]; 750 pmole i.c.v., 30 min before test, 5 min recording) was “decreased the immobile time insignificantly”, the “immobile time in FST” value (Male ICR mice [2]) was “decreased the immobile time insignificantly” and the “Activity (ROMK channel blocking activity, percentage of blockade at 1 μM)” value (rat ROMK) was “- (-, <20%)”. The “ROMK blocking activity (in words)” value (rat ROMK; listed as TPN-C3S) was “little blocking activity; also recorded: scarcely blocked the channel”.
With TPN-RQ(C5S) [Peptide 46] the “Activity (ROMK channel blocking activity, percentage of blockade at 1 μM)” value (rat ROMK) was “- (-, <20%)” and the “ROMK blocking activity (in words)” value (rat ROMK) was “little blocking activity; also recorded: scarcely blocked the channel”.
With TPN-RQ(C14S) [Peptide 47] the “Activity (ROMK channel blocking activity, percentage of blockade at 1 μM)” value (rat ROMK) was “- (-, <20%)”.
In the case of TPN-RQ(C18S) [Peptide 48], the “Activity (ROMK channel blocking activity, percentage of blockade at 1 μM)” value (rat ROMK) is reported as “- (-, <20%)”.
In the case of TPN-RQ(Ins9I) [Peptide 54], the “Activity (ROMK channel blocking activity, percentage of blockade at 1 μM)” value (rat ROMK) is reported as “- (-, <20%)” and the “ROMK blocking activity (in words)” value (rat ROMK) is reported as “abolished the activity”.
